According to US4343808A, “Method of inhibiting sickling of sickle erythrocytes” (The Dow Chemical Company, priority 1980, dated 1982):

What was measured:
[1] = system: sickle erythrocytes (intact sickle cells); experiment: Blockade Erythrocyte Morphology, deoxygenation induced sickling; assay type: cell-based, human
Description: (§1) The compound 2-((4-cyanophenoxy)methyl)-2-imidazoline p-toluenesulfonate (Example 2) and 2-((3-cyanophenoxy)methyl)-2-imidazoline p-toluenesulfonate (Example 4) were tested for anti-sickling activity using a suspension of intact sickle cells as follows:
(§2) Blood collected from individuals with homozygous sickle cell disease, as well as normal blood, was anticoagulated with ethylenediaminetetraacetic acid (EDTA) and refrigerated until used. To portions of the blood samples were added appropriate volumes of a solution of the compound to be tested so that final concentrations of 0.0125 molar (M), 0.025 M, 0.05 M or 0.1 M were obtained, and the mixtures were incubated at 37° C. for 30 minutes. The test compounds were dissolved in saline. Appropriate volumes of saline were added to the control samples. Urea in invert sugar (UIS) at 0.05 M to 1.5 M concentrations was used as an agent capable of transforming sickled cells into normal forms and was therefore used as a positive control.
(§3) Anoxic sickling (deoxygenation) was induced by exposing sickle blood to a hydrated 95% nitrogen, 5% carbon dioxide atmosphere for 60 minutes.
(§4) After the sickling stimulus, slides were prepared. A volume of 0.2 ml of sickled cells were fixed in 1.0 ml of 3.2% glutaraldehyde in 0.1 M cacodylic buffer. Wet slides were prepared and sealed.
(§5) The slides were scored for normal cells (Typ.), atypical cells (Atyp.) and sickled cells (Sickle) on the basis of counting 300 cells per slide.

[2] = system: sickle erythrocytes (intact sickle cells); experiment: Blockade Erythrocyte Morphology, chemically induced sickling (sodium metabisulfite); assay type: cell-based, human
Description: as §1, §2
(§6) Sickling was induced chemically by reducing the blood samples with an equal volume of a 2% solution of sodium metabisulfite in phosphate-buffered saline for 30 minutes.
as §4, §5

[3] = system: sickle erythrocytes (sickle cell blood); experiment: Reverse Erythrocyte Morphology, deoxygenation induced sickling; assay type: cell-based, human
Description: as §2, §3, §4, §5
(§7) The compound 2-((4-cyanophenoxy)methyl)-2-imidazoline p-toluenesulfonate (Example 2) was tested for its ability to reverse the sickling process by first applying the hereinabove noted sickling stimuli to the sickle cell blood and then adding the test compound to the red cell suspensions.

Toxicity (LD50) in mice = conditions: mouse, in vivo, ip, intraperitoneal injection
Hb-S = Hb-S (Homo sapiens, UniProt P68871+P69905, E7V); experiment: Oxygen-Affinity Assay (whole Hb-S blood); assay type: cell-based; conditions: 10 mM, 37° C.
Description: The compounds described herein were tested in an "Oxygen-Affinity Assay" to measure the ability of the compound to influence the Hb-S oxygen affinity. There is a relationship between oxygen binding and Hb-S gelation and thus a measure of oxygen affinity is an index of Hb-S aggregation within the red blood cell. Hemoglobin S polymers decrease the overall oxygen affinity. Thus a return to normal of Hb-S oxygen affinity is a measure of decreased gelation.
For measurements of oxygen equilibria whole Hb-S blood was equilibrated in a tonometer at 37° C. and measurements were made in the presence of a 10 millimolar (mM) concentration of the test compound. Some of the compounds were also tested at a 5 mM concentration. The whole blood pH, oxygen tension, and blood PO2 were measured.
The percentage of oxygen saturation was plotted against the partial pressure of oxygen (mm Hg). The P50 value (oxygen tension at 50% saturation) was determined for each control and treated whole blood sample and the difference (ΔP50) between the control and treated whole blood sample noted. As used herein, a negative ΔP50 represents a change toward a normal Hb-S oxygen affinity and thus is a measure of the test compound's ability to inhibit the sickling of sickle erythrocytes.

[4] = system: sickle erythrocytes (sickle cell blood); experiment: Reverse Erythrocyte Morphology, chemically induced sickling (sodium metabisulfite); assay type: cell-based, human
Description: as §2, §6, §4, §5, §7

[5] = deoxygenation, 0.025 M, vs control
[6] = deoxygenation, 0.05 M, vs control
[7] = deoxygenation, 0.1 M, vs control
[8] = over the ranges tested (0.025-0.1 M)
[9] = reverse, deoxygenation, 0.025 M, vs control
[10] = reverse, deoxygenation, 0.05 M, vs control
[11] = reverse, deoxygenation, 0.1 M, vs control
[12] = reverse, chemically induced, 0.025 M, vs control
[13] = reverse, chemically induced, 0.05 M
[14] = reverse, chemically induced, 0.05 M, vs control
[15] = reverse, chemically induced, 0.1 M
[16] = reverse, chemically induced, 0.1 M, vs control

## Cc1ccc(S(=O)(=O)O)cc1.N#Cc1ccc(OCC2=NCCN2)cc1 [Example 2, 2-((4-Cyanophenoxy)methyl)-2-imidazoline p-Toluenesulfonate]
[1]; Homo sapiens, Erythrocyte, deoxygenation, 0.025 M, vs control, read-out: Percent Change, Sickle (sickled cells)
  inhibition at 25000 µM: 19%
[1]; Homo sapiens, Erythrocyte, deoxygenation, 0.05 M, vs control, read-out: Percent Change, Sickle (sickled cells)
  inhibition at 50000 µM: 27%
[1]; Homo sapiens, Erythrocyte, deoxygenation, 0.1 M, vs control, read-out: Percent Change, Sickle (sickled cells)
  inhibition at 100000 µM: 61%
[1]; Table 1
  interference with deoxygenation induced sickling: interfered with deoxygenation induced sickling
[1]; deoxygenation, 0.025 M
  Lysis: -
[1]; [5]
  Percent Change, Atyp. (atypical cells): -36%
  Percent Change, Typ. (normal cells): +86%
[1]; deoxygenation, 0.05 M
  Lysis: -
  cell lysis (in words): without the appearance of cell lysis
[1]; [6]
  Percent Change, Atyp. (atypical cells): -36%
  Percent Change, Typ. (normal cells): +106%
[1]; deoxygenation, 0.1 M
  Lysis: ± (the appearance of some cell lysis at that particular test compound concentration)
[1]; [7]
  Percent Change, Atyp. (atypical cells): -39%
  Percent Change, Typ. (normal cells): +170%
[2]
  sickling inhibitory effect in the chemically induced test system: slightly sickling inhibitory effect
[2]; 0.025 M
  Lysis: -
[2]; 0.025 M, vs control
  Percent Change, Atyp. (atypical cells): -14%
  Percent Change, Typ. (normal cells): +56%
[2]; 0.05 M
  Lysis: -
[2]; 0.05 M, vs control
  Percent Change, Atyp. (atypical cells): +138%
  Percent Change, Typ. (normal cells): +84%
[2]; 0.1 M
  Lysis: ± (the appearance of some cell lysis at that particular test compound concentration)
[2]; 0.1 M, vs control
  Percent Change, Atyp. (atypical cells): -63%
  Percent Change, Typ. (normal cells): +78%
[2]; Homo sapiens, Erythrocyte, 0.5 h, 0.025 M, vs control, read-out: Percent Change, Sickle (sickled cells)
  inhibition at 25000 µM: 27%
[2]; Homo sapiens, Erythrocyte, 0.5 h, 0.05 M, vs control, read-out: Percent Change, Sickle (sickled cells)
  inhibition at 50000 µM: 29%
[2]; Homo sapiens, Erythrocyte, 0.5 h, 0.1 M, vs control, read-out: Percent Change, Sickle (sickled cells)
  inhibition at 100000 µM: 32%
[3]; Homo sapiens, Erythrocyte, reverse, deoxygenation, 0.025 M, vs control, read-out: Percent Change, Sickle (sickled cells)
  inhibition at 25000 µM: 47%
[3]; Homo sapiens, Erythrocyte, reverse, deoxygenation, 0.05 M, vs control, read-out: Percent Change, Sickle (sickled cells)
  inhibition at 50000 µM: 46%
[3]; Homo sapiens, Erythrocyte, reverse, deoxygenation, 0.1 M, vs control, read-out: Percent Change, Sickle (sickled cells)
  inhibition at 100000 µM: 41%
[3]; [8]
  reversal of sickling induced by deoxygenation: effectively reversed sickling
[3]; reverse, deoxygenation, 0.025 M
  Lysis: -
[3]; [9]
  Percent Change, Atyp. (atypical cells): -22%
  Percent Change, Typ. (normal cells): +133%
[3]; reverse, deoxygenation, 0.05 M
  Lysis: -
[3]; [10]
  Percent Change, Atyp. (atypical cells): -26%
  Percent Change, Typ. (normal cells): +142%
[3]; reverse, deoxygenation, 0.1 M
  Lysis: ± (the appearance of some cell lysis at that particular test compound concentration)
  hemolysis (in words): some hemolysis observed
[3]; [11]
  Percent Change, Atyp. (atypical cells): -46%
  Percent Change, Typ. (normal cells): +202%
Toxicity (LD50) in mice
  LD50: 316 mg/kg
Hb-S
  Δ P50 (oxygen tension at 50% saturation, difference control vs treated): -9.1 mm Hg
[4]; Homo sapiens, Erythrocyte, reverse, chemically induced, 0.025 M, vs control, read-out: Percent Change, Sickle (sickled cells)
  inhibition at 25000 µM: 27%
[4]; Homo sapiens, Erythrocyte, reverse, chemically induced, 0.05 M, vs control, read-out: Percent Change, Sickle (sickled cells)
  inhibition at 50000 µM: 52%
[4]; Homo sapiens, Erythrocyte, reverse, chemically induced, 0.1 M, vs control, read-out: Percent Change, Sickle (sickled cells)
  inhibition at 100000 µM: 48%
[4]; [8]
  reversal of sickling induced chemically: effectively reversed sickling
[4]; reverse, chemically induced, 0.025 M
  Lysis: -
[4]; [12]
  Percent Change, Atyp. (atypical cells): -49%
  Percent Change, Typ. (normal cells): +48%
[4]; [13]
  Lysis: ± (the appearance of some cell lysis at that particular test compound concentration)
  hemolysis (in words): some hemolysis observed
[4]; [14]
  Percent Change, Atyp. (atypical cells): -73%
  Percent Change, Typ. (normal cells): +87%
[4]; [15]
  Lysis: ± (the appearance of some cell lysis at that particular test compound concentration)
  hemolysis (in words): some hemolysis observed
[4]; [16]
  Percent Change, Atyp. (atypical cells): -96%
  Percent Change, Typ. (normal cells): +86%
